We go through one compound from patent US11596644B2, “Method for treating post-prandial hypoglycemia” (AVOLYNT, priority 2018, dated 2023).

One data set concerns the target T1, rat SGLT1 (Rattus norvegicus, UniProt P53790).
T1 construct: expressed in transfected cells; host or cells: COS-7
T1 sequence (P53790 1-665): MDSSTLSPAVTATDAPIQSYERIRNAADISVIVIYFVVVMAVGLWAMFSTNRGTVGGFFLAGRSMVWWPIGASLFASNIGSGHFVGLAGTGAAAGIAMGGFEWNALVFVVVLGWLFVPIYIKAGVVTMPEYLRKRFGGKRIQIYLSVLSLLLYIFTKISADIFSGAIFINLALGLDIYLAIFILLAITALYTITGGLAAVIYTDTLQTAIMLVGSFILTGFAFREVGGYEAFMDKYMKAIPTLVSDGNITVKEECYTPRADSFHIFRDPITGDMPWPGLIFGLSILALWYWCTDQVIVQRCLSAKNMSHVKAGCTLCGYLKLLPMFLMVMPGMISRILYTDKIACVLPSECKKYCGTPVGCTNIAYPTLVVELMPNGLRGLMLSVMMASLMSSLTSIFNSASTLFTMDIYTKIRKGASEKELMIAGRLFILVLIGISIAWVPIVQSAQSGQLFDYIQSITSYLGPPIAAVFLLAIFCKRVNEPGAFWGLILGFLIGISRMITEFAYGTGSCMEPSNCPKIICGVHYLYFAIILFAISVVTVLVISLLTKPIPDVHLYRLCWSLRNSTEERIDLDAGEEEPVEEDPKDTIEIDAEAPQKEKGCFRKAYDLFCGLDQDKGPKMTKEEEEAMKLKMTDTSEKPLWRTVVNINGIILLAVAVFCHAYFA
Nature of the data set: Inhibition of radiolabeled α-MG uptake into COS-7 cells transfected with rat SGLT1 (Dixon plot). It is filed as cell-based. As to the method: (§1) Selective inhibition study. Inhibition constants (Ki) of mizagliflozin for rat and human SGLT1 and SGLT2 were determined measuring concentration-dependent effects of test compound on uptake of radiolabeled methyl-α-D-glucopyranoside (α-MG) into COS-7 cells transiently transfected with cloned SGLT1 or SGLT2. Mizagliflozin was assessed at concentrations from 1 to 30 μM and 3 to 100 μM for human and rat SGLT2, respectively. It was assessed at concentrations from 30 nM to 1 μM and 10 to 30 nM for human and rat SGLT1, respectively. α-MG test concentrations were 0.3 and 1 mM. Data were analyzed and Ki determined using Dixon plots of initial transport rates. […] Inhibition constants were also determined for human SGLT1 and SGLT2.

In another data set the target is T2, human SGLT2 (Homo sapiens, UniProt P31639).
T2 construct: expressed in transfected cells; host or cells: COS-7
T2 sequence (P31639 1-672): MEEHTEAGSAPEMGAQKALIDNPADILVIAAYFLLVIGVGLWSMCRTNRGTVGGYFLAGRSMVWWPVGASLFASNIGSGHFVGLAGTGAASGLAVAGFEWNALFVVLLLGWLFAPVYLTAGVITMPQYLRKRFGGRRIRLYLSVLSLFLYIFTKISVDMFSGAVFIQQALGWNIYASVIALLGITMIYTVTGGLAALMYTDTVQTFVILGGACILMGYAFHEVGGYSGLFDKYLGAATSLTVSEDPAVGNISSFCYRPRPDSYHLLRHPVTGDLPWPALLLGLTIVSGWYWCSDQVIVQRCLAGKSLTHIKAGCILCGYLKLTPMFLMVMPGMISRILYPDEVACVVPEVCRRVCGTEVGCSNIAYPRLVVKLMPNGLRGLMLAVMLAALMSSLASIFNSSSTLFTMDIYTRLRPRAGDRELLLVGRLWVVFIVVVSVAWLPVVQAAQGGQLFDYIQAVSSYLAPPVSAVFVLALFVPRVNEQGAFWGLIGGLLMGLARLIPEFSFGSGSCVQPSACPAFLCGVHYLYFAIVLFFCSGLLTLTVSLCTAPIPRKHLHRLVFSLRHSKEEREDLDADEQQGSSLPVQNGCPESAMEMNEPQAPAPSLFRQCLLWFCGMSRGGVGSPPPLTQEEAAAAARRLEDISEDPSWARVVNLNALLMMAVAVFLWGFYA
Nature of the data set: Inhibition of radiolabeled α-MG uptake into COS-7 cells transfected with human SGLT2 (Dixon plot). It is filed as cell-based. The note with it: α-MG 0.3 and 1 mM, read-out: inhibition constant for human SGLT2. Here is the method: as §1

Data set [1] is described as follows: Excretion after oral dosing in non-human primates. It is filed as in vivo. From the text:
Accordingly, the SGLT1 inhibitor compounds of Formula I or Formula II are locally acting in the gut, and have poor systemic exposure. […] Systemic exposure (e.g., Cmax) can be measured by methods well known in the art, including liquid chromatography mass spectrometry.

Consider `Cc1cc(OCCCNCC(C)(C)C(N)=O)ccc1Cc1c(O[C@@H]2O[C@H](CO)[C@@H](O)[C@H](O)[C@H]2O)n[nH]c1C(C)C` [mizagliflozin, 3-(3-{4-[3-(β-D-glucopyranosyloxy)-5-isopropyl-1H-pyrazol-4-ylmethyl-]-3-methylphenoxy}propylamino)-2,2-dimethylpropionamide], for which the “mode of inhibition of SGLT1 (Dixon plot intersection pattern)” value at rat SGLT1 (rat SGLT1) is “competitive with substrate”. Further, the Ki on rat SGLT1 (α-MG 0.3 and 1 mM, COS-7 cells) was 31.2 nM; on human SGLT2 it was 8.17 µM. In addition, the “excreted in the feces” value in data set [1] is given as > 82 % of orally administered dose.
